The values below come from patent publication US20240269298A1, “PHOSPHONYL DERIVATIVE, AND COMPOSITION AND PHARMACEUTICAL APPLICATION THEREOF” (XIZANG HAISCO PHARMACEUTICAL CO., LTD., priority 2021, published 2024).

For data set [1], the system named is A431 (EGFR-WT) cells. Nature of the data set: Inhibitory activity on proliferation of A431 (EGFR-WT) cells (CTG, 72 h). The data set is classed as cell-based. To be noted: Homo sapiens, A-431. An outline of the steps:
(§1)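 IC50 values come from S-shaped dose-survival fits of CTG signal expressed as % of vehicle. Compound exposure lasted 72 h at 37 °C with 0.1% DMSO; seeding was 3000 A431 cells/well in DMEM+10% FBS and 1000 NCI-H1975 cells/well in RPMI1640+10% FBS.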

Data set [2] concerns NCI-H1975 (EGFR-L858R-T790M) cells. Nature of the data set: Inhibitory activity on proliferation of NCI-H1975 (EGFR-L858R-T790M) cells (CTG, 72 h). Type of data set: cell-based. The conditions noted are these: Homo sapiens. An outline of the steps:
as §1

For data set [3], the target named is T1, EGFR protein in NCI-H1975 EGFR-L858R-T790M-C797S cells (Homo sapiens, UniProt P00533, C797S/L858R/T790M).
T1 construct: expressed in transfected cells; host or cells: NCI-H1975 EGFR-L858R-T790M-C797S (kept under hygromycin selection)
Nature of the data set: Degradation activity on EGFR protein in NCI-H1975 EGFR-L858R-T790M-C797S cells, Method II (western blot, 48 h). Type of data set: cell-based. To be noted: 48 h incubation, EGFR protein relative to DMSO control. As to the method:
(§2) Protein sample preparation: NCI-H1975 EGFR-L858R-T790M-C797S cells were cultured in an incubator at 37° C. with 5% CO2, and the culture medium was RPMI1640+10% FBS+100 μg/mL hygromycin. The cells in the logarithmic phase were collected, and the cell suspension was adjusted to an appropriate concentration with a hygromycin-free culture medium, plated on a 6-well plate at a density of 350000 cells/well and a volume of 2 mL, and cultured overnight in an incubator at 37° C. with 5% CO2. The next day, the compounds at different concentrations were added. DMSO control wells were provided, wherein the concentration of DMSO in all wells was 0.1%. The 6-well plate was cultured in an incubator at 37° C. with 5% CO2 for 48 h, and then 30 μL of RIPA lysates (Beyotime, Cat. P0013B) containing protease inhibitors (Beyotime, Cat. P0013B) were added. The mixtures were lysed on ice for 30 min. Centrifugation was carried out at 13000 rpm/min at 4° C. for 20 minutes to collect protein supernatant samples, and protein quantification was performed by the BCA method. Western Blot detection samples were prepared.
(§3) Western blot detection: 20 μg of protein samples were added to each well, subjected to polyacrylamide gel electrophoresis and transferred to a membrane, and then diluted anti-EGFR (CST, Cat. 4267S) and […] (Kangchen, Cat. KC-5G4) antibodies were added and incubated overnight at 4° C. After washing the membrane, diluted goat anti-rabbit (Licor, Cat. 926-32211) and goat anti-mouse (Licor, Cat. 926-68070) antibodies were added and incubated in the dark for 45 min. Scanning and detection at wavelengths of 700 nm and 800 nm were performed with a far-infrared imaging system (Odyssey).
(§4) According to formula (3), the expression level of EGFR protein in the cells relative to the DMSO control group was calculated after incubation with different concentrations of compounds. wherein EGFRcompound was the fluorescence value of EGFR protein after incubation with compounds, and EGFRvehicle was the fluorescence value of EGFR protein in the DMSO control group. Using the Origin 9.2 software, the drug concentration DC50 values when the expression level of EGFR protein was 50% relative to the DMSO control group were calculated.
For orientation: Immunoblotting shows a protein as a band on a membrane.

A short description of data set [4]: Pharmacokinetic test in mice. Type of data set: in vivo. The conditions noted are these: male, ICR, mouse, po, administration i.g. (10 mg/kg), plasma. An outline of the steps: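 Male ICR mice (20-25 g), fasted 12-14 h before dosing and fed 4 h after, received a single intravenous or intragastric dose. Orbital plasma sampled from 0 to 24 h (5 min-24 h points); LC-MS/MS quantitation for PK parameters and bioavailability.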

For data set [5], the system named is NCI-H1975 EGFR-L858R-T790M-C797S cells. Kind of data set: Inhibitory activity on proliferation of NCI-H1975 EGFR-L858R-T790M-C797S cells (CellTiter-Glo, 72 h). The data set is classed as cell-based. The conditions noted are these: Homo sapiens. An outline of the steps: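 Cells (1500/well) exposed to graded compound concentrations for 72 h at 37 °C in hygromycin-free RPMI1640 + 10% FBS, 0.1% DMSO vehicle. Viability by CellTiter-Glo luminescence relative to vehicle; IC50 from nonlinear sigmoidal dose-survival fit.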
(Cellular ATP, detected with luciferase, serves as a proxy for viable cell number.)

The target in data set [6] is T1, EGFR protein in NCI-H1975 EGFR-L858R-T790M-C797S cells. Nature of the data set: Degradation activity on EGFR protein in NCI-H1975 EGFR-L858R-T790M-C797S cells, Method I (western blot, 72 h). The data set is classed as cell-based. To be noted: 72 h incubation, EGFR protein relative to DMSO control. The protocol: as §2, with “200000” for “350000”, “72” for “48”, “min” for “minutes”, “Samples for western blot” for “Western Blot”, “detection” for “detection samples”
as §3, §4

Where [7] appears, read: read-out: IC50 (value in brackets).

Structures are written as SMILES. Where two headings read alike, the source gives them in different places.

T1 sequence (P00533 25-1210 T790M/C797S/L858R): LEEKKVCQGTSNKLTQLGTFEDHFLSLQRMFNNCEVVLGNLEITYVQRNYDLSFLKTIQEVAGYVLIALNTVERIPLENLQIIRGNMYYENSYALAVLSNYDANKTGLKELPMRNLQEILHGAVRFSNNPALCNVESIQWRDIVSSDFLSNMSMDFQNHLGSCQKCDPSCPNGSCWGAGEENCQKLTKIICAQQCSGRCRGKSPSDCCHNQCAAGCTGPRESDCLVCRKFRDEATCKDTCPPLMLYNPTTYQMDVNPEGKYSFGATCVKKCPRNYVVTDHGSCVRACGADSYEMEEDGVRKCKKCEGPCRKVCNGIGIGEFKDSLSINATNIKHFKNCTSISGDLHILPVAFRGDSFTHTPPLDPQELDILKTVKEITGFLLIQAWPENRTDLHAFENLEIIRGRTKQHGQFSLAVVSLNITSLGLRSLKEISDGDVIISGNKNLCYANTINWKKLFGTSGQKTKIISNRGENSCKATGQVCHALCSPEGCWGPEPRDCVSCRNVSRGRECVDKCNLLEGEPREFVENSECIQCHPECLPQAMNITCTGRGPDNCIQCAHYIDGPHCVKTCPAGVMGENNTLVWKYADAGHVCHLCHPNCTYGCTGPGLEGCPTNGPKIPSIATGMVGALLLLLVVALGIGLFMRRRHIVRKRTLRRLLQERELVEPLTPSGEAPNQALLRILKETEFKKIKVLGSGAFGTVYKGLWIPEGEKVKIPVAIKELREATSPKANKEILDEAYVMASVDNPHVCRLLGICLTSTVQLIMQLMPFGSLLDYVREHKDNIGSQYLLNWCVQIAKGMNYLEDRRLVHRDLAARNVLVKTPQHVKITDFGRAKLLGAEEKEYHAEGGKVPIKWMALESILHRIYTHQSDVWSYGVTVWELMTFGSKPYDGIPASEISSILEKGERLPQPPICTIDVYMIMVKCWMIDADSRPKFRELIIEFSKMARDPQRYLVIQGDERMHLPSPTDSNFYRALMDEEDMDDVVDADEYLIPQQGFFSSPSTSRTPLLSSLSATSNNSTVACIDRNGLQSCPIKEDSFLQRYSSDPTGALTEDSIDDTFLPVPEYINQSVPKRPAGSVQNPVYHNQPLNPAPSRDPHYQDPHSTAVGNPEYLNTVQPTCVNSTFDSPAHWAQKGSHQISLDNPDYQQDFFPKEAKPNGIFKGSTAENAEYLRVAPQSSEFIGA

Consider `COc1cc(N2CCN(C[C@@H]3CCN(c4ccc5c(c4)C(=O)N(C4CCC(=O)NC4=O)C5=O)C3)CC2)c(-c2cnn(C)c2)cc1Nc1ncc(Br)c(Nc2ccc(-c3ccccc3F)cc2P(C)(C)=O)n1` (stereo partly drawn) [Compound 116, 5-((S)-3-((4-(4-((5-bromo-4-((3-(dimethylphosphoryl)-2′-fluoro-[1,1′-biphenyl]-4-yl)amino)pyrimidin-2-yl)amino)-5-methoxy-2-(1-methyl-1H-pyrazol-4-yl)phenyl)piperazin-1-yl)methyl)pyrrolidin-1-yl)-2-(2,6-dioxopiperidin-3-yl)isoindoline-1,3-dione], for which the half-maximal inhibitory concentration (IC50) is at least 10 µM in data set [1], below 100 nM in data set [2] (read-out: IC50 (class symbol)) and 94 nM in data set [2] (setting [7]). The compound further registered a DC50 in data set [3] below 100 nM.
As for `COc1cc(N2CCN(CC3CCN(c4ccc5c(c4)C(=O)N(C4CCC(=O)NC4=O)C5=O)CC3)CC2)c(-c2cnn(C)c2)cc1Nc1ncc(Br)c(Nc2ccc(-c3ccccc3)cc2P(C)(C)=O)n1` (centres unmarked) [Compound 77, 5-(4-((4-(4-((5-bromo-4-((3-(dimethylphosphoryl)-[1,1′-biphenyl]-4-yl)amino)pyrimidin-2-yl)amino)-5-methoxy-2-(1-methyl-1H-pyrazol-4-yl)phenyl)piperazin-1-yl)methyl)piperidin-1-yl)-2-(2,6-dioxopiperidin-3-yl)isoindoline-1,3-dione], the half-inhibitory concentration (IC50) in data set [1] was at least 10 µM; in data set [2] (read-out: IC50 (class symbol)) it was below 100 nM; in data set [2] (setting [7]), 32 nM; in data set [5] (read-out: IC50 (class symbol)), below 200 nM; in data set [5] (read-out: IC50 (value)), 46 nM. The compound further registered an AUC in data set [4] of 47300 ng·h/mL. Further, the half-life in data set [4] was 347 min. This compound had a DC50 in data set [6] below 100 nM.
Turning to `COc1cc(N2CCC(N3CCN(CC4CCN(c5ccc6c(c5)C(=O)N(C5CCC(=O)NC5=O)C6=O)CC4)CC3)CC2)c(-c2cnn(C)c2)cc1Nc1ncc(Br)c(Nc2ccc(-c3ccccc3F)cc2P(C)(C)=O)n1` (centres unmarked) [Compound 54, 5-(4-((4-(1-(4-((5-bromo-4-((3-(dimethylphosphoryl)-2′-fluoro-[1,1′-biphenyl]-4-yl)amino)pyrimidin-2-yl)amino)-5-methoxy-2-(1-methyl-1H-pyrazol-4-yl)phenyl)piperidin-4-yl)piperazin-1-yl)methyl)piperidin-1-yl)-2-(2,6-dioxopiperidin-3-yl)isoindoline-1,3-dione], the IC50 is at least 10 µM in data set [1]; below 100 nM in data set [2] (read-out: IC50 (class symbol)); 69 nM in data set [2] (setting [7]); below 200 nM in data set [5] (read-out: IC50 (class symbol)); 56 nM in data set [5] (read-out: IC50 (value)). In data set [4], this compound displayed an AUC(0-t) of 29800 ng·h/mL. The compound also had a DC50 in data set [6] below 100 nM.
As to `COc1cc(N2CCN(CC3CCN(c4ccc5c(c4)C(=O)N(C4CCC(=O)NC4=O)C5=O)C3)CC2)c(-c2cnn(C)c2)cc1Nc1ncc(Cl)c(Nc2ccc(-c3ccccc3)cc2P(C)(C)=O)n1` (centres unmarked) [Compound 68, 5-(3-((4-(4-((5-chloro-4-((3-(dimethylphosphoryl)-[1,1′-biphenyl]-4-yl)amino)pyrimidin-2-yl)amino)-5-methoxy-2-(1-methyl-1H-pyrazol-4-yl)phenyl)piperazin-1-yl)methyl)pyrrolidin-1-yl)-2-(2,6-dioxopiperidin-3-yl)isoindoline-1,3-dione], the IC50 was at least 10 µM in data set [1]; below 100 nM in data set [2] (read-out: IC50 (class symbol)); 66 nM in data set [2] (setting [7]); 200 to 500 nM in data set [5] (read-out: IC50 (class symbol)); 280 nM in data set [5] (read-out: IC50 (value)). Besides, the AUC in data set [4] amounted to 53200 ng·h/mL. The compound further had a half-life in data set [4] of 208 min. In data set [6], this compound had a DC50 below 100 nM.
`COc1cc(N2CCC(N3CCN(c4ccc5c(c4)C(=O)N(C4CCC(=O)NC4=O)C5=O)CC3)CC2)c(-c2cnn(C)c2)cc1Nc1ncc(Cl)c(Nc2ccc(-c3ccccc3)cc2P(C)(C)=O)n1` (centres unmarked) [Compound 92, 5-(4-(1-(4-((5-chloro-4-((3-(dimethylphosphoryl)-[1,1′-biphenyl]-4-yl)amino)pyrimidin-2-yl)amino)-5-methoxy-2-(1-methyl-1H-pyrazol-4-yl)phenyl)piperidin-4-yl)piperazin-1-yl)-2-(2,6-dioxopiperidin-3-yl)isoindoline-1,3-dione]: the IC50 was at least 10 µM in data set [1]; below 100 nM in data set [2] (read-out: IC50 (class symbol)); 71 nM in data set [2] (setting [7]); below 200 nM in data set [5] (read-out: IC50 (class symbol)); 65 nM in data set [5] (read-out: IC50 (value)). Further, the AUC in data set [4] was determined as 63000 ng·h/mL. The same compound had a half-life in data set [4] of 413 min. Besides, the half-maximal degradation concentration (DC50) in data set [6] was below 100 nM.
Regarding `COc1cc(N2CCN(C3CCN(c4ccc5c(c4)C(=O)N(C4CCC(=O)NC4=O)C5=O)CC3)CC2)c(-c2cnn(C)c2)cc1Nc1ncc(Cl)c(Nc2ccc(-c3ccccc3)cc2P(C)(C)=O)n1` (centres unmarked) [Compound 100, 5-(4-(4-(4-((5-chloro-4-((3-(dimethylphosphoryl)-[1,1′-biphenyl]-4-yl)amino)pyrimidin-2-yl)amino)-5-methoxy-2-(1-methyl-1H-pyrazol-4-yl)phenyl)piperazin-1-yl)piperidin-1-yl)-2-(2,6-dioxopiperidin-3-yl)isoindoline-1,3-dione], the concentration for half-maximal inhibition (IC50) is at least 10 µM in data set [1]; below 100 nM in data set [2] (read-out: IC50 (class symbol)); 48 nM in data set [2] (setting [7]); below 200 nM in data set [5] (read-out: IC50 (class symbol)); 84 nM in data set [5] (read-out: IC50 (value)). Besides, in data set [4], the AUC was determined as 33300 ng·h/mL. The compound further had a half-life in data set [4] of 149 min. In data set [6], this compound had a DC50 below 100 nM.
As for `COc1cc(N2CCC(CN3CCC4(CC3)CCN(c3ccc5c(c3)C(=O)N(C3CCC(=O)NC3=O)C5=O)CC4)CC2)c(-c2cnn(C)c2)cc1Nc1ncc(Br)c(Nc2ccc(-c3ccccc3)cc2P(C)(C)=O)n1` (centres unmarked) [Compound 37, 5-(9-((1-(4-((5-bromo-4-((3-(dimethylphosphoryl)-[1,1′-biphenyl]-4-yl)amino)pyrimidin-2-yl)amino)-5-methoxy-2-(1-methyl-1H-pyrazol-4-yl)phenyl)piperidin-4-yl)methyl)-3,9-diazaspiro[5.5]undecan-3-yl)-2-(2,6-dioxopiperidin-3-yl)isoindoline-1,3-dione], the IC50 in data set [1] is at least 10 µM; in data set [2] (read-out: IC50 (class symbol)), below 100 nM; in data set [2] (setting [7]), 38 nM; in data set [5] (read-out: IC50 (class symbol)) it was below 200 nM; in data set [5] (read-out: IC50 (value)), 32 nM. Also, the AUC(0-t) in data set [4] is 21700 ng·h/mL. The compound also displayed a DC50 in data set [6] below 100 nM.

What is called IC50 is the concentration that inhibits the measured activity by half. A word on the DC50: it is the midpoint of the concentration-degradation curve. A word on the AUC: it is the area under the concentration-time curve, a measure of exposure. Read a high AUC as more exposure. Broadly, the half-life is the time in which the quantity being followed falls by half. Low values mean rapid decline, high ones slow decline. As usually defined, the AUC(0-t) is the area under the concentration-time curve up to a stated or last time point.
